Measured values reported in patent US20040235070A1, “Immune reactivity to expressed activated oncogenes for diagnosis and treatment of malignancy” (Washington Research Foundation, priority 1990, published 2004).

Legend:
[1] = test system: bcr3-abl2 peptide-specific CD4^+ T cell clones; assay: Proliferative assay of bcr3-abl2 peptide-specific CD4+ T cell clones ([3H] thymidine incorporation); format: cell-based, BALB/c mice; settings: for [^3H] Thymidine Incorporation (c.p.m.) after Stimulation / [^3H] Thymidine Incorporation (c.p.m.): 96-hour culture; for [^3H] Thymidine Incorporation (c.p.m.): Table 2; for [^3H] Thymidine Incorporation (c.p.m.) after Stimulation with bcr3-abl2 peptide (5 μg/ml): peptides of varying lengths 5 μg/ml, 96 hour culture, Table 4
Protocol: (§1) Mice (female BALB/c and C57BL/6 (B6), 6 to 8 weeks old; Jackson Laboratories, Bar Harbor, Me.) were inoculated twice at 2-week intervals by subcutaneous injection with Complete Freund's Adjuvant (Sigma Chemical Co., St. Louis, Mo.) alone or emulsified with bcr3-abl2 peptide (100 μg). Ten days after the final immunization, single cell suspensions of draining lymph nodes and spleens were prepared in medium consisting of 1:1 mixture of RPMI 1640 (Gibco Laboratories, Inc., Grand Island, N.Y.) and EHAA (Biofluids, Inc., Rockville, Md.) with 2.5×10^−5 M 2-ME, 200 U/ml penicillin, 200 U/ml streptomycin, 10 mM L-glutamine and 10% fetal calf serum. For proliferative assays, lymphocytes were cultured in 96-well plates at 2×10^5 cells per well with 4×10^5 irradiated syngeneic spleen cells (3,000 rad) and designated (total volume of 200 μl per well). Plates were incubated in a humidified atmosphere under 5% CO2 tension at 37° C. for 72 hours, and then pulsed for 18 hours with […] of [^3H]-thumidine per well. Proliferative responses of cloned T cells utilized 2×10^4 cells per well with 5×10^5 irradiated syngeneic spleen cells (3,000 rad) and designated peptide.
Lymphocytes from the draining lymph nodes of mice immunized with bcr3-abl2 peptide were cultured in 24-well culture plates at 4×10^6 cells per well with 2×10^6 irradiated syngeneic spleen cells and bcr3-abl2 peptide at 25 μg/ml (total volume 2 ml). The plates were cultured in a humidified atmosphere under 5% CO2 tension at 37° C. for 5 days then split 1:2. After 10 days, lymphocytes were restimulated at 1×10^6 lymphocytes per well in 24-well culture plates with 5×10^6 irradiated syngeneic spleen cells and peptide (25 μg/ml). Two days after the second in vitro stimulation, T cells were-plated at 0.5 cells per well in 96-well flat-bottom plates with 1×10^6 irradiated syngeneic spleen cells and rIL-2 (50 U/ml). Derived T cell clones were maintained by periodic stimulation with peptide (1 μg/ml) plus irradiated syngeneic spleen cells followed by expansion with rIL-2 (10 U/ml) every 2 weeks. T cell clones were stained with FITC-conjugated anti-Thy 1.2 (1%), or FITC-conjugated anti-Lyt2 (2%), or PE-conjugated anti-L3T4 (3%) mAbs (Becton Dickinson Immunocytochemistry Systems, Mountain View, Calif.) at 4° C. for 45 minutes.

[2] = test system: lymph node and splenic lymphocytes from immunized mice; assay: Proliferation of lymph node and spleen lymphocytes from mice immunized with bcr3-abl2 peptide; format: cell-based; settings: BALB/c mice immunized with bcr3-abl2 12 mer peptide
Protocol: Ten days following immunization with peptide, draining lymph node cells (Panel A) and spleen cells (Panel B) were cultured alone or with bcr3-abl2 12 mer peptide, or bcr2-abl2 12 mer peptide, or ras-c12 12 mer peptide at 25 μg/ml, and assayed after 96 hours for proliferation by [^3H] thymidine uptake. The data represent the mean of triplicate determinations of the c.p.m.+S.D.
as §1, with “Proliferative responses of cloned T cells utilized 2×10^4 cells per well with 5×10^5 irradiated syngeneic spleen cells (3,000 rad) and designated peptide.” left out

G F K Q S S K A L Q R P (GFKQSSKALQRP) [bcr3-abl2 12 mer peptide, 12 amino acid peptide identical to the joining region of p210 bcr-abl (bcr exon 3 fused to c-abl exon 2)]
[^3H] Thymidine Incorporation (c.p.m.) after Stimulation ([1]; T cell clone 1D2, peptide 0.04 μg/ml): 16,423 c.p.m. | [^3H] Thymidine Incorporation (c.p.m.) after Stimulation ([1]; T cell clone 1D2, peptide 0.2 μg/ml): 91,251 c.p.m. | [^3H] Thymidine Incorporation (c.p.m.) after Stimulation ([1]; T cell clone 1D2, peptide 1 μg/ml): 183,229 c.p.m. | [^3H] Thymidine Incorporation (c.p.m.) ([1]; T cell clone 1D2, peptide 5 μg/ml): 274,701 c.p.m. | [^3H] Thymidine Incorporation (c.p.m.) after Stimulation ([1]; T cell clone 1D2, peptide 5 μg/ml, Table 3): 259,018 c.p.m. | [^3H] Thymidine Incorporation (c.p.m.) after Stimulation ([1]; T cell clone 1D2, peptide 25 μg/ml): 66,329 c.p.m. | [^3H] Thymidine Incorporation (c.p.m.) after Stimulation with bcr3-abl2 peptide (5 μg/ml) ([1]; T cell clone 1D2): 120,049 c.p.m. | [^3H] Thymidine Incorporation (c.p.m.) after Stimulation ([1]; T cell clone 2B12, peptide 0.04 μg/ml): 4,132 c.p.m. | [^3H] Thymidine Incorporation (c.p.m.) after Stimulation ([1]; T cell clone 2B12, peptide 0.2 μg/ml): 71,651 c.p.m. | [^3H] Thymidine Incorporation (c.p.m.) after Stimulation ([1]; T cell clone 2B12, peptide 1 μg/ml): 213,089 c.p.m. | [^3H] Thymidine Incorporation (c.p.m.) ([1]; T cell clone 2B12, peptide 5 μg/ml): 109,319 c.p.m. | [^3H] Thymidine Incorporation (c.p.m.) after Stimulation ([1]; T cell clone 2B12, peptide 5 μg/ml, Table 3): 229,010 c.p.m. | [^3H] Thymidine Incorporation (c.p.m.) after Stimulation ([1]; T cell clone 2B12, peptide 25 μg/ml): 132,620 c.p.m. | [^3H] Thymidine Incorporation (c.p.m.) after Stimulation ([1]; T cell clone 2D4, peptide 0.04 μg/ml): 12,599 c.p.m. | [^3H] Thymidine Incorporation (c.p.m.) after Stimulation ([1]; T cell clone 2D4, peptide 0.2 μg/ml): 150,711 c.p.m. | [^3H] Thymidine Incorporation (c.p.m.) after Stimulation ([1]; T cell clone 2D4, peptide 1 μg/ml): 256,606 c.p.m. | [^3H] Thymidine Incorporation (c.p.m.) ([1]; T cell clone 2D4, peptide 5 μg/ml): 262,799 c.p.m. | [^3H] Thymidine Incorporation (c.p.m.) after Stimulation ([1]; T cell clone 2D4, peptide 5 μg/ml, Table 3): 182,266 c.p.m. | [^3H] Thymidine Incorporation (c.p.m.) after Stimulation ([1]; T cell clone 2D4, peptide 25 μg/ml): 42,623 c.p.m. | [^3H] Thymidine Incorporation (c.p.m.) after Stimulation ([1]; T cell clone 2E3, peptide 0.04 μg/ml): 1,475 c.p.m. | [^3H] Thymidine Incorporation (c.p.m.) after Stimulation ([1]; T cell clone 2E3, peptide 0.2 μg/ml): 93,921 c.p.m. | [^3H] Thymidine Incorporation (c.p.m.) after Stimulation ([1]; T cell clone 2E3, peptide 1 μg/ml): 273,273 c.p.m. | [^3H] Thymidine Incorporation (c.p.m.) ([1]; T cell clone 2E3, peptide 5 μg/ml): 293,219 c.p.m. | [^3H] Thymidine Incorporation (c.p.m.) after Stimulation ([1]; T cell clone 2E3, peptide 5 μg/ml, Table 3): 407,729 c.p.m. | [^3H] Thymidine Incorporation (c.p.m.) after Stimulation ([1]; T cell clone 2E3, peptide 25 μg/ml): 358,253 c.p.m. | [^3H] Thymidine Incorporation (c.p.m.) after Stimulation ([1]; T cell clone 2E10, peptide 0.04 μg/ml): 26,195 c.p.m. | [^3H] Thymidine Incorporation (c.p.m.) after Stimulation ([1]; T cell clone 2E10, peptide 0.2 μg/ml): 235,103 c.p.m. | [^3H] Thymidine Incorporation (c.p.m.) after Stimulation ([1]; T cell clone 2E10, peptide 1 μg/ml): 333,056 c.p.m. | [^3H] Thymidine Incorporation (c.p.m.) ([1]; T cell clone 2E10, peptide 5 μg/ml): 242,633 c.p.m. | [^3H] Thymidine Incorporation (c.p.m.) after Stimulation ([1]; T cell clone 2E10, peptide 5 μg/ml, Table 3): 312,783 c.p.m. | [^3H] Thymidine Incorporation (c.p.m.) after Stimulation ([1]; T cell clone 2E10, peptide 25 μg/ml): 131,643 c.p.m. | [^3H] Thymidine Incorporation (c.p.m.) after Stimulation with bcr3-abl2 peptide (5 μg/ml) ([1]; T cell clone 2E10): 96,525 c.p.m. | [^3H] Thymidine Incorporation (c.p.m.) after Stimulation ([1]; T cell clone 3B7, peptide 0.04 μg/ml): 60,957 c.p.m. | [^3H] Thymidine Incorporation (c.p.m.) after Stimulation ([1]; T cell clone 3B7, peptide 0.2 μg/ml): 56,967 c.p.m. | [^3H] Thymidine Incorporation (c.p.m.) after Stimulation ([1]; T cell clone 3B7, peptide 1 μg/ml): 111,212 c.p.m. | [^3H] Thymidine Incorporation (c.p.m.) ([1]; T cell clone 3B7, peptide 5 μg/ml): 64,935 c.p.m. | [^3H] Thymidine Incorporation (c.p.m.) after Stimulation ([1]; T cell clone 3B7, peptide 5 μg/ml, Table 3): 149,640 c.p.m. | [^3H] Thymidine Incorporation (c.p.m.) after Stimulation ([1]; T cell clone 3B7, peptide 25 μg/ml): 53,441 c.p.m. | [^3H] Thymidine Incorporation (c.p.m.) after Stimulation ([1]; T cell clone 3E11, peptide 0.04 μg/ml): 91,240 c.p.m. | [^3H] Thymidine Incorporation (c.p.m.) after Stimulation ([1]; T cell clone 3E11, peptide 0.2 μg/ml): 135,985 c.p.m. | [^3H] Thymidine Incorporation (c.p.m.) after Stimulation ([1]; T cell clone 3E11, peptide 1 μg/ml): 189,843 c.p.m. | [^3H] Thymidine Incorporation (c.p.m.) ([1]; T cell clone 3E11, peptide 5 μg/ml): 263,425 c.p.m. | [^3H] Thymidine Incorporation (c.p.m.) after Stimulation ([1]; T cell clone 3E11, peptide 5 μg/ml, Table 3): 130,633 c.p.m. | [^3H] Thymidine Incorporation (c.p.m.) after Stimulation ([1]; T cell clone 3E11, peptide 25 μg/ml): 40,755 c.p.m. | [^3H] Thymidine Incorporation (c.p.m.) after Stimulation ([1]; T cell clone 3G2, peptide 0.04 μg/ml): 9,440 c.p.m. | [^3H] Thymidine Incorporation (c.p.m.) after Stimulation ([1]; T cell clone 3G2, peptide 0.2 μg/ml): 49,602 c.p.m. | [^3H] Thymidine Incorporation (c.p.m.) after Stimulation ([1]; T cell clone 3G2, peptide 1 μg/ml): 150,799 c.p.m. | [^3H] Thymidine Incorporation (c.p.m.) ([1]; T cell clone 3G2, peptide 5 μg/ml): 30,846 c.p.m. | [^3H] Thymidine Incorporation (c.p.m.) after Stimulation ([1]; T cell clone 3G2, peptide 5 μg/ml, Table 3): 168,387 c.p.m. | [^3H] Thymidine Incorporation (c.p.m.) after Stimulation ([1]; T cell clone 3G2, peptide 25 μg/ml): 132,024 c.p.m. | [^3H] Thymidine Incorporation (c.p.m.) after Stimulation ([1]; T cell clone 3G3, peptide 0.04 μg/ml): 11,510 c.p.m. | [^3H] Thymidine Incorporation (c.p.m.) after Stimulation ([1]; T cell clone 3G3, peptide 0.2 μg/ml): 18,403 c.p.m. | [^3H] Thymidine Incorporation (c.p.m.) after Stimulation ([1]; T cell clone 3G3, peptide 1 μg/ml): 93,219 c.p.m. | [^3H] Thymidine Incorporation (c.p.m.) ([1]; T cell clone 3G3, peptide 5 μg/ml): 61,521 c.p.m. | [^3H] Thymidine Incorporation (c.p.m.) after Stimulation ([1]; T cell clone 3G3, peptide 5 μg/ml, Table 3): 143,670 c.p.m. | [^3H] Thymidine Incorporation (c.p.m.) after Stimulation ([1]; T cell clone 3G3, peptide 25 μg/ml): 101,280 c.p.m. | response of bcr3-abl2 peptide-specific T cell clones (in words) ([1]; proliferative assay with irradiated syngeneic APC): responded specifically | lowest concentration to which clones responded vigorously ([1]; some clones, lowest concentration tested): 0.04 µg/mL | proliferation in vitro of lymph node and splenic lymphocytes [2]: proliferated in vitro
